Results taken from article PMC11698746 (Scientific Reports, 2025).
Like-named read-outs stand apart in the source and are kept apart here.

Legend:
[1] = Transport of flavonoids in HLF across Caco-2 cell monolayer; format: in vitro ADME; settings: human, Caco-2, Papp, Caco-2, range over HLF 50, 100 and 200 µg·mL^−1
[2] = In situ recirculating intestinal perfusion; format: in vivo; settings: rat, other: in situ recirculating intestinal perfusion, absorption potential (Papp), rat small intestine, different concentrations of HLF
rat small intestine = test: In situ recirculating intestinal perfusion; format: in vivo; settings: different concentrations of HLF
rat intestine = format: in vivo; settings: for detection in the effluent fluid: rat single-pass intestinal perfusion after HLF via jugular vein
intestinal microflora = test: Metabolism of HLF by intestinal microflora; format: in vitro ADME, rat; settings: anaerobic incubation 37 °C, up to 48 h
[3] = Pharmacokinetics of HLF via oral administration; format: in vivo, rat; settings: after intragastric administration of HLF
[4] = cited from earlier work

Row | SMILES | Papp [1] | Papp at 3 h [2] | absorption extent (A) (rat small intestine) | absorption potential (Papp) (rat small intestine) | detection in the effluent fluid (rat intestine) | metabolism by the intestinal microflora (intestinal microflora) | detection in the rat plasma and bile [3] | Papp ([4]; previous study) | Papp ([4]; other study) | reduction of cumulative efflux amount (rat intestine; in the presence of VP vs absence)
1 | O=c1c(O[C@@H]2O[C@H](CO)[C@H](O)[C@H](O)[C@H]2O)c(-c2ccc(O)c(O)c2)oc2cc(O)cc(O)c12 [HP, hyperoside] | 0.226 to 0.383 ×10⁻⁶ cm/s | 0.255 to 0.427 ×10⁻⁶ cm/s | 11.40 ± 0.98 %·h^−1 | 4.27 ± 0.36 ×10^−7 cm·sec^−1 | hardly detected | metabolized to QUE | cannot be detected | 1.87 ± 1.11 ×10^−7 cm·sec^−1 | – | –
2 | C[C@@H]1O[C@@H](OC[C@H]2O[C@@H](Oc3c(-c4ccc(O)c(O)c4)oc4cc(O)cc(O)c4c3=O)[C@H](O)[C@@H](O)[C@@H]2O)[C@H](O)[C@H](O)[C@H]1O [RUT, rutin] | 0.228 to 0.304 ×10⁻⁶ cm/s | 0.031 to 0.141 ×10⁻⁶ cm/s | – | – | hardly detected | metabolized to QUE | cannot be detected | – | 1.03 ± 0.13 ×10^−5 cm·sec^−1 | –
3 | O=c1cc(-c2ccc(O)cc2)oc2c([C@@H]3O[C@H](CO)[C@@H](O)[C@H](O)[C@H]3O)c(O)cc(O)c12 [VIT, vitexin] | 0.218 to 0.383 ×10⁻⁶ cm/s | 0.031 to 0.141 ×10⁻⁶ cm/s | – | – | detected | – | cannot be detected | – | – | 47.63%
